Where “and” joins values, the source holds several entries; their conditions need not be identical. Equal entries are not always repeated. Where two headings read alike, the source gives them in different places.

The conditions of the data set: the molecule shown is the open-chain precursor, crosslinker bond, CH3CN/H2O 1:1, 0.1 mM, 25.0 °C.

For the substance “H-Ala-Cys-Tyr-Lys-Arg-Ser-Asp-Phe-Thr-Cys-Gly-Gly-Gly-Ser-NH2?”, the ring closure, yield after HPLC (bis-Pd aryl reagent 6b (2 equiv)/Tris pH 7.5) came out at 85%; the ring closure, yield after HPLC (bis-Pd aryl reagent 6c (2 equiv)/Tris pH 7.5) was determined as 70%; the ring closure, yield after HPLC (bis-Pd aryl reagent 6e (2 equiv)/Tris pH 7.5) amounted to 100%; the ring closure, yield after HPLC (bis-Pd aryl reagent 6d (2 equiv)/Tris pH 7.5) was found to be 84%; the ring closure, yield after HPLC (bis-Pd aryl reagent (2 equiv, not named)/Tris pH 7.5) was 79% and 92% and 94%.

For the origin of these results see patent US20210206791.
